{
  "source": "patent US9896423B2",
  "about": "“Deuterium substituted 1-[2-(2,4-dimethyl-phenylsulfanyl)-phenyl]piperazine compound or derivatives thereof, and pharmaceutical composition and use thereof” (Jiangsu Jibeier Pharmaceutical Co. Ltd., priority 2014, dated 2018)",
  "key": {"Male ICR mice [1]": {"test_system": "Male ICR mice", "test": "Mice swimming test", "format": "in vivo", "excerpt": "(§1) The following method is used for testing the antidepression effect of the compound of the present application. ICR mice or SD rats, gavaged for two successive weeks, were subjected to mice swimming test, mice tail suspension test and rats swimming test. See below for details of the tests and results.\nMale ICR mice weighing 18 g to 20 g were used. They were fed on sterilized standard feed.\nThe compound administered in the test was 1-{2-[2,4-bis(trideuteriomethyl)phenylsulfanyl]phenyl}piperazine hydrobromic acid salt (XX for short). Vortioxetine (YY for short) was used as a control sample. Venlafaxine HCl (from Wyeth, USA) was used as a positive control.\nVortioxetine (15 mg) was combined with 10% hydroxypropyl-β-cyclodextrin to form a solution of 100 mL and was administered at daily dose of 3 mg/kg. 1-{2-[2,4-bis(trideuteriomethyl)phenylsulfanyl]phenyl}piperazine hydrobromic acid salt (15 mg and 7.5 mg) was combined with 10% hydroxypropyl-β-cyclodextrin to form two solutions of 100 mL and was administered at daily doses of 3 mg/kg and 1.5 mg/kg, respectively. Venlafaxine HCl (75 mg) was combined with 0.5% CMC-Na to form a solution of 100 mL and was administered at daily dose of […].\nA recording and analysis system for small-animal behavior (Noldus) was used.\nAll the eighty mice were subjected to prescreening one day before the administration. The mice, fasted for 4 hours were put in a round glass tank (ø 14 cm×h 20 cm, with water of 10 cm depth and at a temperature of 25° C.) to swim. […] The whole swimming course was recorded by the video and the data were collected and analyzed automatically by Noldus software.\nThe forty qualified mice were divided into 4 groups, each of which had 10 mice, according to the Excel random grouping.\nThe medicaments were administered to each group by gavage with the amount of 0.2 ml per 10 g of body weight, once a day for 14 successive days. One hour later after the last oral administration, the mice were allowed to swim for 6 min. The video recorded the whole swimming course, and the Noldus software automatically collected and analyzed the data.\nThe data was given as “average±standard deviation” (x±s). One-way analysis of variance (one-way ANOVA) was used for data difference statistics. Differences among the groups were determined by P<0.05."}, "Male ICR mice [2]": {"test_system": "Male ICR mice", "test": "Mice tail suspension test", "format": "in vivo", "excerpt": "as §1\nThe animals, medicaments, calculation of dosages to the mice, preparation of drug solution and apparatus are the same as those in the mice swimming test.\nThe medicaments were correspondingly administered by gavage, once a day, to the animals in the groups for 14 successive days, with the amount of 0.2 ml per 10 g of body weight. The mice were subjected to tail suspension one hour later after the last oral administration. The suspension continued for 6 min.\nThe data was given as “average±standard deviation” (x±s). One-way analysis of variance (ANOVA) was used for data difference statistics. Differences among the groups were determined by P<0.05."}, "[3]": {"conditions": "30 mg/kg gavage, two successive weeks"}},
  "note": "Counter-ions that a name gives are not always drawn.",
  "data": [
    {"smiles": "COc1ccc(C(CN(C)C)C2(O)CCCCC2)cc1", "note": "(stereo not shown) [Venlafaxine, Venlafaxine HCl, reference compound]", "values": [
      {"measurement": "effect on length of time that the mice stopped swimming vs blank control", "setting": "Male ICR mice [1]; [3]", "result": "markedly shortened"},
      {"measurement": "Duration without Movement within the Last 4 min of the Whole 6 min", "setting": "Male ICR mice [1]; mice, gavage once a day for 14 days, 30 mg/kg, n = 10, x ± s", "result": "173.6 ± 31.4", "unit": "s"},
      {"measurement": "effect on length of time that the tail-suspended mice stopped moving vs blank control", "setting": "Male ICR mice [2]; [3]", "result": "markedly shortened"},
      {"measurement": "Duration without Move within 6 min", "setting": "Male ICR mice [2]; mice tail suspension, gavage 14 days, 30 mg/kg, n = 10, x ± s", "result": "180.6 ± 661.8", "unit": "s"}
    ]}
  ]
}
